Source: ChEMBL document CHEMBL3885861, “Open TG-GATES”

Species on record: Rattus norvegicus
Assay: Open TG-GATES - Regimen: Daily Repeat
Type: toxicity, organism-based, Sprague-Dawley
Design: regimen Daily Repeat, gender Male, age 6 weeks
Conditions: in vivo, po, 0 mg/kg, route gavage, dose level Control; for APTT / Bas / Eos / Fbg / Ht / MCH / MCHC / MCV / Mono / Neu / PT / RBC / Ret: tissue Blood; for KIDNEY_L / KIDNEY_R / KIDNEY_TOTAL: tissue Kidney; for ALP / ALT / AST / BUN / CRE / Ca / Cl / DBIL / GLC / IP / K / LDH / Na / PL / RALB / TBIL / TC / TG / TP / gamma-GTP: tissue Plasma

For `CC(=O)Nc1nnc(S(N)(=O)=O)s1` [ACETAZOLAMIDE], the TERMINAL_BW (72 h, time 3 day) was 229 g, the APTT (72 h, time 3 day) was 21.2 s and the Bas (72 h, time 3 day) was 0%. For the same molecule, the Eos (72 h, time 3 day) was 1%, the Fbg (72 h, time 3 day) was 302.2 mg/dL and the Ht (72 h, time 3 day) was 39.4%. For the same molecule, the MCH (72 h, time 3 day) was 21.3 pg, the MCHC (72 h, time 3 day) was 34% and the MCV (72 h, time 3 day) was 62.8 fL. For the same molecule, the Mono (72 h, time 3 day) was 3%, the Neu (72 h, time 3 day) was 16% and the PT (72 h, time 3 day) was 17 s. For the same molecule, the RBC (72 h, time 3 day) was 628.2 x10_4/ul, the Ret (72 h, time 3 day) was 6.9% and the KIDNEY_L (72 h, time 3 day) was 1 g. The KIDNEY_R (72 h, time 3 day) was 1 g, the KIDNEY_TOTAL (72 h, time 3 day) was 2 g and the ALP (72 h, time 3 day) was 1759.2 IU/L. The ALT (72 h, time 3 day) was 45.6 IU/L, the AST (72 h, time 3 day) was 81.2 IU/L and the BUN (72 h, time 3 day) was 17.8 mg/dL. For the same molecule, the CRE (72 h, time 3 day) was 0.1 mg/dL, the Ca (72 h, time 3 day) was 10.8 mg/dL and the Cl (72 h, time 3 day) was 106.6 meq/L. For the same molecule, the DBIL (72 h, time 3 day) was 0 mg/dL, the GLC (72 h, time 3 day) was 193.6 mg/dL and the IP (72 h, time 3 day) was 7.5 mg/dL. The K (72 h, time 3 day) was 4.3 meq/L, the LDH (72 h, time 3 day) was 208.8 IU/L and the Na (72 h, time 3 day) was 142 meq/L. For the same molecule, the PL (72 h, time 3 day) was 135 mg/dL, the RALB (72 h, time 3 day) was 3.1 g/dL and the TBIL (72 h, time 3 day) was 0.008 mg/dL. The TC (72 h, time 3 day) was 71.2 mg/dL, the TG (72 h, time 3 day) was 86.2 mg/dL and the TP (72 h, time 3 day) was 5.5 g/dL. The gamma-GTP (72 h, time 3 day) was 1.8 IU/L, the TERMINAL_BW ([…], time 7 day) was 260.7 g and the TERMINAL_BW ([…], time 14 day) was 306.6 g. It also gave a TERMINAL_BW ([…], time 28 day) of 366.7 g, an APTT ([…], time 7 day) of 21.8 s and a Bas ([…], time 7 day) of 0%. For the same molecule, the Eos ([…], time 7 day) was 0.8%, the Ht ([…], time 7 day) was 39.7% and the MCH ([…], time 7 day) was 21.9 pg. The MCHC ([…], time 7 day) was 35.8%, the MCV ([…], time 7 day) was 61.1 fL and the Mono ([…], time 7 day) was 2.4%. The Neu ([…], time 7 day) was 11.8%, the PT ([…], time 7 day) was 16.1 s and the RBC ([…], time 7 day) was 650.4 x10_4/ul. For the same molecule, the Ret ([…], time 7 day) was 5.7%, the APTT ([…], time 14 day) was 23.3 s and the Bas ([…], time 14 day) was 0%. The Eos ([…], time 14 day) was 0.8%, the Fbg ([…], time 14 day) was 297.2 mg/dL and the Ht ([…], time 14 day) was 40%. The MCH ([…], time 14 day) was 20.5 pg, the MCHC ([…], time 14 day) was 35.3% and the MCV ([…], time 14 day) was 58.2 fL. The Mono ([…], time 14 day) was 2.2%, the Neu ([…], time 14 day) was 14% and the PT ([…], time 14 day) was 16.5 s. It also gave an RBC ([…], time 14 day) of 688.2 x10_4/ul, a Ret ([…], time 14 day) of 5.1% and an APTT ([…], time 28 day) of 25.9 s. The Bas ([…], time 28 day) was 0%, the Eos ([…], time 28 day) was 0.6% and the Fbg ([…], time 28 day) was 316 mg/dL. The Ht ([…], time 28 day) was 44%, the MCH ([…], time 28 day) was 19 pg and the MCHC ([…], time 28 day) was 34.3%. It also gave an MCV ([…], time 28 day) of 55.6 fL, a Mono ([…], time 28 day) of 2% and a Neu ([…], time 28 day) of 12.4%. It also gave an RBC ([…], time 28 day) of 791.4 x10_4/ul, a Ret ([…], time 28 day) of 2.8% and a KIDNEY_L ([…], time 7 day) of 1 g. It also gave a KIDNEY_R ([…], time 7 day) of 1.1 g, a KIDNEY_TOTAL ([…], time 7 day) of 2.1 g and a KIDNEY_L ([…], time 14 day) of 1.2 g. The KIDNEY_R ([…], time 14 day) was 1.2 g, the KIDNEY_TOTAL ([…], time 14 day) was 2.4 g and the KIDNEY_L ([…], time 28 day) was 1.3 g. It also gave a KIDNEY_R ([…], time 28 day) of 1.3 g, a KIDNEY_TOTAL ([…], time 28 day) of 2.6 g and an ALP ([…], time 7 day) of 1905.2 IU/L. The ALT ([…], time 7 day) was 37.6 IU/L, the AST ([…], time 7 day) was 72.6 IU/L and the BUN ([…], time 7 day) was 22 mg/dL. It also gave a CRE ([…], time 7 day) of 0.2 mg/dL, a Ca ([…], time 7 day) of 10.8 mg/dL and a Cl ([…], time 7 day) of 106.4 meq/L. The DBIL ([…], time 7 day) was 0 mg/dL, the GLC ([…], time 7 day) was 203 mg/dL and the IP ([…], time 7 day) was 6.9 mg/dL. The K ([…], time 7 day) was 4.7 meq/L, the LDH ([…], time 7 day) was 193.6 IU/L and the Na ([…], time 7 day) was 142.2 meq/L. It also gave a PL ([…], time 7 day) of 132.6 mg/dL, an RALB ([…], time 7 day) of 3.1 g/dL and a TBIL ([…], time 7 day) of 0.002 mg/dL. The TC ([…], time 7 day) was 63.2 mg/dL, the TG ([…], time 7 day) was 101.8 mg/dL and the TP ([…], time 7 day) was 5.3 g/dL. The gamma-GTP ([…], time 7 day) was 1.6 IU/L, the ALP ([…], time 14 day) was 1570.4 IU/L and the AST ([…], time 14 day) was 67.2 IU/L. It also gave a BUN ([…], time 14 day) of 19.8 mg/dL, a CRE ([…], time 14 day) of 0.2 mg/dL and a Ca ([…], time 14 day) of 10.6 mg/dL. The DBIL ([…], time 14 day) was 0 mg/dL, the GLC ([…], time 14 day) was 197.6 mg/dL and the IP ([…], time 14 day) was 7.4 mg/dL. For the same molecule, the K ([…], time 14 day) was 4.3 meq/L, the LDH ([…], time 14 day) was 171.4 IU/L and the Na ([…], time 14 day) was 143.6 meq/L. The PL ([…], time 14 day) was 142.4 mg/dL, the RALB ([…], time 14 day) was 3.1 g/dL and the TBIL ([…], time 14 day) was 0.002 mg/dL. For the same molecule, the TC ([…], time 14 day) was 67 mg/dL, the TP ([…], time 14 day) was 5.7 g/dL and the gamma-GTP ([…], time 14 day) was 2.4 IU/L. The ALP ([…], time 28 day) was 1140.2 IU/L, the ALT ([…], time 28 day) was 40.6 IU/L and the AST ([…], time 28 day) was 63.8 IU/L. The BUN ([…], time 28 day) was 18.8 mg/dL, the CRE ([…], time 28 day) was 0.2 mg/dL and the Cl ([…], time 28 day) was 105.4 meq/L. The DBIL ([…], time 28 day) was 0 mg/dL, the GLC ([…], time 28 day) was 207.8 mg/dL and the IP ([…], time 28 day) was 6.2 mg/dL. For the same molecule, the K ([…], time 28 day) was 4.1 meq/L, the LDH ([…], time 28 day) was 138.8 IU/L and the Na ([…], time 28 day) was 142.6 meq/L. The RALB ([…], time 28 day) was 3.3 g/dL, the TBIL ([…], time 28 day) was 0.004 mg/dL and the TC ([…], time 28 day) was 69.8 mg/dL. The TG ([…], time 28 day) was 178.4 mg/dL, the TP ([…], time 28 day) was 6.1 g/dL and the gamma-GTP ([…], time 28 day) was 2.2 IU/L.
